The record followed here is ChEMBL document CHEMBL4507276 (2021).

In data set [1] the target is Protein kinase C beta type (Homo sapiens) (UniProt P05771). Kind of data set: PRKCB2 Invitrogen selectivity data (BI). Particulars: Compound concentration 3.0 uM; call rule not given here.
Data set [2] deals with Bone morphogenetic protein receptor type-1A (Homo sapiens) (UniProt P36894). Kind of data set: BMPR1A(ALK3) Invitrogen selectivity data (BI). Particulars: Compound concentration 3.0 uM.
Data set [3] addresses Delta-type opioid receptor (Homo sapiens) (UniProt P41143). Kind of data set: DELTA/HU Eurofins-Panlabs selectivity data (BI). As to conditions: Compound concentration 10.0 uM.
Data set [4] addresses Casein kinase I isoform delta (Homo sapiens) (UniProt P48730). Kind of data set: CSNK1D Invitrogen selectivity data (BI). Particulars: Compound concentration 3.0 uM.
For data set [5], the system named is Platelet-derived growth factor receptor alpha (Homo sapiens), P16234 [D842V]. Kind of data set: PDGFRA D842V Invitrogen selectivity data (BI). As to conditions: Compound concentration 3.0 uM.
Platelet-derived growth factor receptor alpha (Homo sapiens), P16234 [D842V], sequence (P16234 whole entry D842V): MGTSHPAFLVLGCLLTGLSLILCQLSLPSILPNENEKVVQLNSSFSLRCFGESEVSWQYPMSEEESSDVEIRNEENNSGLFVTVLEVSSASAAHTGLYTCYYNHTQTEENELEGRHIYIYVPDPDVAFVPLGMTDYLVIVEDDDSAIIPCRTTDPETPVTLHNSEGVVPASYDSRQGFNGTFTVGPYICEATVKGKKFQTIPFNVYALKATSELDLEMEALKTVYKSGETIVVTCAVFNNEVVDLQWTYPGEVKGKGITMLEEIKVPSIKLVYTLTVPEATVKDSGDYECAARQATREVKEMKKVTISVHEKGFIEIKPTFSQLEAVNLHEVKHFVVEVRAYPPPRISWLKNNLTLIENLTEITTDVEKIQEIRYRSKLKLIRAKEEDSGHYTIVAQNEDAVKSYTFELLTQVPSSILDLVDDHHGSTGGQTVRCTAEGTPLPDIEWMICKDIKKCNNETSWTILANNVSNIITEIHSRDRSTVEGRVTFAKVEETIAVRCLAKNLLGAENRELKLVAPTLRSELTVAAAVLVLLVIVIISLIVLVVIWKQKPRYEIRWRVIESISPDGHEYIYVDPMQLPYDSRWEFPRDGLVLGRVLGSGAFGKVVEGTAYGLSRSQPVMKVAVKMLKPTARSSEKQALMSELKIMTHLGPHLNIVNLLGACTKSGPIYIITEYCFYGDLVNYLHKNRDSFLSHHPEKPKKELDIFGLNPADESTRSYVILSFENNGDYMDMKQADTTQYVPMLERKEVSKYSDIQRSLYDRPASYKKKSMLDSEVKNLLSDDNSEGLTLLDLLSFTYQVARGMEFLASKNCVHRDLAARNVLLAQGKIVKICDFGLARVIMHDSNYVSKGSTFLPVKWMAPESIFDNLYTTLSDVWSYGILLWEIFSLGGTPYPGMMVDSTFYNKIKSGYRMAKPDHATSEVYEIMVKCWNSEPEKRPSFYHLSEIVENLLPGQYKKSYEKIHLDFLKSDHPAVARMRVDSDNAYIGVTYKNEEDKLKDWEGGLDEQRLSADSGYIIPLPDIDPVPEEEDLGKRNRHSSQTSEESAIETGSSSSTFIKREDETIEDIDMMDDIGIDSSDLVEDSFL
The target in data set [6] is Receptor-interacting serine/threonine-protein kinase 2 (Homo sapiens) (UniProt O43353). Kind of data set: RIPK2 Invitrogen selectivity data (BI). As to conditions: Compound concentration 3.0 uM.
Data set [7] concerns the target T1, Myotonin-protein kinase (Homo sapiens) (UniProt Q09013).
T1 sequence (whole entry): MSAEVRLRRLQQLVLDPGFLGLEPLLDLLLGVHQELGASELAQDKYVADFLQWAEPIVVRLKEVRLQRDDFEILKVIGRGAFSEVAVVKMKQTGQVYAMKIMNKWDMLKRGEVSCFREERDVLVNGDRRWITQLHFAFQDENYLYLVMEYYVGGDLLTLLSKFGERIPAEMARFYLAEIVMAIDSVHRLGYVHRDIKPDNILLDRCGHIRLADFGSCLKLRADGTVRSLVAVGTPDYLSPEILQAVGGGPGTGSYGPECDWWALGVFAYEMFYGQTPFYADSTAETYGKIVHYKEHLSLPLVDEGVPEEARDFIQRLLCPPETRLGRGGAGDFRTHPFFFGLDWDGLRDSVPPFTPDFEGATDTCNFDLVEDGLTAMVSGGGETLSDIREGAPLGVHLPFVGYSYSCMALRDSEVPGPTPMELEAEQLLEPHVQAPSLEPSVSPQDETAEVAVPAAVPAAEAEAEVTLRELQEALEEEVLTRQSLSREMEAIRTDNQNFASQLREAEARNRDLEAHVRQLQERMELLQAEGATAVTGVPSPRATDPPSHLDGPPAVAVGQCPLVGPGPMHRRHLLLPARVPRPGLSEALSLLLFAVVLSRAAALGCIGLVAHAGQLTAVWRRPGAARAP
Description: DMPK Invitrogen selectivity data (BI). Particulars: Compound concentration 3.0 uM.

Data set [8] has as its target T2, 5-hydroxytryptamine receptor 3A (Homo sapiens) (UniProt P46098).
T2 sequence (whole entry): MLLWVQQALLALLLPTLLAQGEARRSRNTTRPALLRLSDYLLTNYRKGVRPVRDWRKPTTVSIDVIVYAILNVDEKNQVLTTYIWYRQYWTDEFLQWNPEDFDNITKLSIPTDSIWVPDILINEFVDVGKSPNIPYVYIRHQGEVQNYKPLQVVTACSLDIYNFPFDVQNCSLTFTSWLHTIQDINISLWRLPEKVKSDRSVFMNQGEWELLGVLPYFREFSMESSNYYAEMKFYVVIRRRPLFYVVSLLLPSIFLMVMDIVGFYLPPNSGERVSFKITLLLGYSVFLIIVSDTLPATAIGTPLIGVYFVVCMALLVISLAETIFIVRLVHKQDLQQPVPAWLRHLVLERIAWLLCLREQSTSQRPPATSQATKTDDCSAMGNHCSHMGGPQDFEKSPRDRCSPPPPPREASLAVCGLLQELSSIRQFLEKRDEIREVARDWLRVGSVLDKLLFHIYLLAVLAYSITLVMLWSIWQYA
Kind of data set: 5HT3/HU Eurofins-Panlabs selectivity data (BI). Particulars: Compound concentration 10.0 uM.

In data set [9] the target is Glutamate receptor ionotropic, NMDA 2A (Rattus norvegicus) (UniProt Q00959). Description: NMDA/R Cerep selectivity data (BI). As to conditions: Compound concentration 20.0 uM.
In data set [10] the target is cGMP-specific 3',5'-cyclic phosphodiesterase (Homo sapiens) (UniProt O76074). Kind of data set: PDE5 Cerep selectivity data (BI). As to conditions: Compound concentration 20.0 uM.
In data set [11] the target is Sodium- and chloride-dependent GABA transporter 1 (Rattus norvegicus) (UniProt P23978). Kind of data set: GABATRANS/RA Eurofins-Panlabs selectivity data (BI). As to conditions: Compound concentration 10.0 uM.
Data set [12] concerns the target Glycogen synthase kinase-3 beta (Homo sapiens) (UniProt P49841). Kind of data set: GSK3B Invitrogen selectivity data (BI). Particulars: Compound concentration 3.0 uM.
Data set [13] concerns the target MAP/microtubule affinity-regulating kinase 3 (Homo sapiens) (UniProt P27448). Kind of data set: MARK3 Invitrogen selectivity data (BI). Particulars: Compound concentration 3.0 uM.
Data set [14] deals with Sodium-dependent serotonin transporter (Homo sapiens) (UniProt P31645). Kind of data set: 5HTTRANS/HU Eurofins-Panlabs selectivity data (BI). Particulars: Compound concentration 10.0 uM.
The target in data set [15] is T3, Inhibitor of nuclear factor kappa-B kinase subunit epsilon (Homo sapiens) (UniProt Q14164).
T3 sequence (whole entry): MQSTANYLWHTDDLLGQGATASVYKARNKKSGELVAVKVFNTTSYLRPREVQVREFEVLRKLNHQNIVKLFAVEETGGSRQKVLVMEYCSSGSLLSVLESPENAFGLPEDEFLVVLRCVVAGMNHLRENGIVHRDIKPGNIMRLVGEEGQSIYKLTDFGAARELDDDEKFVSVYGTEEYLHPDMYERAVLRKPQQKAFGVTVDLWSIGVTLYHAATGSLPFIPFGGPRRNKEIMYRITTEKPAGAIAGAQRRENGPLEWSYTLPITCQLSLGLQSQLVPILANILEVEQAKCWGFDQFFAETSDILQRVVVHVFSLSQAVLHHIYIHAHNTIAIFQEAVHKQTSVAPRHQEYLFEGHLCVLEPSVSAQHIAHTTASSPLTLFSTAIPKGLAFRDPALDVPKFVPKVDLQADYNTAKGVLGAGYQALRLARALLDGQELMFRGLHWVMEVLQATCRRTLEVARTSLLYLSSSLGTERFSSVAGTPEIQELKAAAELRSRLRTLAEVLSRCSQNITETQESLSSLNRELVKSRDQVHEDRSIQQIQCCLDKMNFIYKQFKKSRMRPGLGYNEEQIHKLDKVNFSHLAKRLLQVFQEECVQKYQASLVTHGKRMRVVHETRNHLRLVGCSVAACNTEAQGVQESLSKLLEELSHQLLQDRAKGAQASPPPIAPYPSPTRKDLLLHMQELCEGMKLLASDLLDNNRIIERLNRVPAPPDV
Kind of data set: IKBKE Invitrogen selectivity data (BI). Particulars: Compound concentration 3.0 uM.

Data set [16] concerns the target Serine/threonine-protein kinase 25 (Homo sapiens) (UniProt O00506). Kind of data set: STK25 Invitrogen selectivity data (BI). As to conditions: Compound concentration 3.0 uM.
The target in data set [17] is Mitogen-activated protein kinase 1 (Homo sapiens) (UniProt P28482). Description: MAPK1 Invitrogen selectivity data (BI). Particulars: Compound concentration 3.0 uM.
Mitogen-activated protein kinase 1 (Homo sapiens), sequence (P28482 whole entry): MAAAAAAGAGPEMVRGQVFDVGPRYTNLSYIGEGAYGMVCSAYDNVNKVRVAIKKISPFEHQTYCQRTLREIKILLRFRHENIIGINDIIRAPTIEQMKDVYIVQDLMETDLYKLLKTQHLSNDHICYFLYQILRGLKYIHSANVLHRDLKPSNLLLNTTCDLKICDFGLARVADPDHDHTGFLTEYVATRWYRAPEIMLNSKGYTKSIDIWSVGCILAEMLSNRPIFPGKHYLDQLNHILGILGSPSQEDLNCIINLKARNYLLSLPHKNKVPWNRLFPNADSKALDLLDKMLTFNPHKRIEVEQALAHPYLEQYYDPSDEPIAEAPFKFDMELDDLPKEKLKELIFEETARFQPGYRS
Data set [18] deals with Matrix metalloproteinase-9 (Homo sapiens) (UniProt P14780). Kind of data set: MMP-9 (H) Cerep selectivity data (BI). Particulars: Compound concentration 20.0 uM.
Matrix metalloproteinase-9 (Homo sapiens), sequence (P14780 whole entry): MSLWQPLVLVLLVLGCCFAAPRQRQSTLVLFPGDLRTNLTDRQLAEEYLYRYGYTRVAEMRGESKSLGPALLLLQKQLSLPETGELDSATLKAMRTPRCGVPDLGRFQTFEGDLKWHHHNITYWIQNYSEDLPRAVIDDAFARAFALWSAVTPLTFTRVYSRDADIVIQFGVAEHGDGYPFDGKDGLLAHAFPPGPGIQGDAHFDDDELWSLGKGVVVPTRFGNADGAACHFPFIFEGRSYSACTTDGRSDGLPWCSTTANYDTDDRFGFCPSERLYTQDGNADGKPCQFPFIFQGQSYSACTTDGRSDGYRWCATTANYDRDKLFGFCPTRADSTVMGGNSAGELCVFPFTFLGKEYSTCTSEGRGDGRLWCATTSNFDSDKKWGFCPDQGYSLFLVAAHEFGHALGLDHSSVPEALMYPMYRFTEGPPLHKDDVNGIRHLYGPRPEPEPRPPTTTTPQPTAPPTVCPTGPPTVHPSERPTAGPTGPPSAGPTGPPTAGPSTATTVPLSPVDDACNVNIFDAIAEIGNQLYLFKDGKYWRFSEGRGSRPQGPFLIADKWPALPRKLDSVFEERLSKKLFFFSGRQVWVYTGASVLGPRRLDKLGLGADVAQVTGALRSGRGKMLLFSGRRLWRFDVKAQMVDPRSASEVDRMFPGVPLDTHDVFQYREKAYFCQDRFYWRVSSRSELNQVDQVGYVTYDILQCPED
In data set [19] the target is L-type Ca2+ channel (dihydropyridine site), Cav1.2 alpha-1C (Rattus norvegicus, UniProt P22002). Description: CA+/DHPSI/R Cerep selectivity data (BI). More on the design: mode of action inhibitor. Particulars: rat brain, probe [3H](+)PN200-110, compound concentration 20 uM, read-out: % Ctrl.
For data set [20], the target named is Serine/threonine-protein kinase 16 (Homo sapiens) (UniProt O75716). Kind of data set: STK16 Invitrogen selectivity data (BI). As to conditions: Compound concentration 3.0 uM.
Serine/threonine-protein kinase 16 (Homo sapiens), sequence (O75716 whole entry): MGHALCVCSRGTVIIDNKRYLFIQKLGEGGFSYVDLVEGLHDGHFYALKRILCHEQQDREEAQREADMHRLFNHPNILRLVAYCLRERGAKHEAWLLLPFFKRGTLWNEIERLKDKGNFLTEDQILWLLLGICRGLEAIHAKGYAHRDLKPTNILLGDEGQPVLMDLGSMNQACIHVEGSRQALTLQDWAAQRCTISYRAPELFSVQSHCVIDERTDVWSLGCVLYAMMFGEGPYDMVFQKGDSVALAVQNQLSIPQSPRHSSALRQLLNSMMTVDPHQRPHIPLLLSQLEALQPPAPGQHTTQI

Protein kinase C beta type (Homo sapiens), sequence (P05771 2-671 limits assumed): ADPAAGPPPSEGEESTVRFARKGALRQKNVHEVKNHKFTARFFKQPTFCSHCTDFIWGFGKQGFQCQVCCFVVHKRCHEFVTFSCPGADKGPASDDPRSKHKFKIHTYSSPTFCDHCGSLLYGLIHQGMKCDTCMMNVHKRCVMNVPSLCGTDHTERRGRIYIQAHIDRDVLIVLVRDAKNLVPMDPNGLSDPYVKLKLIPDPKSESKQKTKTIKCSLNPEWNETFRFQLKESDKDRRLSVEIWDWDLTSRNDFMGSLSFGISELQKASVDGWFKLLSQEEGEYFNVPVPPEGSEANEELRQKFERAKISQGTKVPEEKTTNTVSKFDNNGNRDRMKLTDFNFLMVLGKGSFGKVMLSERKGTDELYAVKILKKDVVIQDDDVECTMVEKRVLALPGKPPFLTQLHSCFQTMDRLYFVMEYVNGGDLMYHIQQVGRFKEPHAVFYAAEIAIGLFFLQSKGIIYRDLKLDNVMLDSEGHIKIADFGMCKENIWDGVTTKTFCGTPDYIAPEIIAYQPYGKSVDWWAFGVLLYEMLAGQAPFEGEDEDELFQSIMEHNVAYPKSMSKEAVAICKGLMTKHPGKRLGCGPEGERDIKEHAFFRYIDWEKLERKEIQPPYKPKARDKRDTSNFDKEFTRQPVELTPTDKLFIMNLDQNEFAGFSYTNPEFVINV
MAP/microtubule affinity-regulating kinase 3 (Homo sapiens), sequence (P27448 whole entry, looked up): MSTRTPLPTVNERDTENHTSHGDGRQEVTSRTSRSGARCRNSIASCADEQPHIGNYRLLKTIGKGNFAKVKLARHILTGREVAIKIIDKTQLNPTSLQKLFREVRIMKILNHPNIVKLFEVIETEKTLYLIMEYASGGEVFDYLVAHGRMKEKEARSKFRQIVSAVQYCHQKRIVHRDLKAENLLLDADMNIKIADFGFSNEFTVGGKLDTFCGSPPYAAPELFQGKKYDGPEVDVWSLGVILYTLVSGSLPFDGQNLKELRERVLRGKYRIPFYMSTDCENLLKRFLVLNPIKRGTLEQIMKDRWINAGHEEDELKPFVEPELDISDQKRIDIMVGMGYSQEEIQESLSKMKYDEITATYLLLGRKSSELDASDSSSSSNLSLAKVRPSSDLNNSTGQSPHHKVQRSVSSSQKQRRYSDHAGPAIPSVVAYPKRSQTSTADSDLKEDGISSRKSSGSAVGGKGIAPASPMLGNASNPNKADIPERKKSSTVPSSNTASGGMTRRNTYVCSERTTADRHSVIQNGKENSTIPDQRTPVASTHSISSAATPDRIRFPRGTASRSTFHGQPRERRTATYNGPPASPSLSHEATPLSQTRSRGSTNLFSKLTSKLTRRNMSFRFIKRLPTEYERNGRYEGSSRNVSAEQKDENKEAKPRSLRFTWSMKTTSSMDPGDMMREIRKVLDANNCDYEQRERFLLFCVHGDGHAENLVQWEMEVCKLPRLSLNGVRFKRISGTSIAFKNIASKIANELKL
Delta-type opioid receptor (Homo sapiens), sequence (P41143 whole entry, canonical isoform): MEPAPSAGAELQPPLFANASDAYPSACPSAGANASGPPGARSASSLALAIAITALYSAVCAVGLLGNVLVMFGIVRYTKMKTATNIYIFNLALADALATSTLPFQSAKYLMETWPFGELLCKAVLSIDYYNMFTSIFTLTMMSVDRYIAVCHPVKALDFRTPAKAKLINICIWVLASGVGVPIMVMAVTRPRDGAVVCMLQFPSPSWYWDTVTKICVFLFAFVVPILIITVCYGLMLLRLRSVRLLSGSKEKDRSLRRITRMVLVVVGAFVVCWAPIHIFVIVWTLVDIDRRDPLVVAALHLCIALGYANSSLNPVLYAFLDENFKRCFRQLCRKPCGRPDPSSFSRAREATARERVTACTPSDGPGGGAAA

Turning to `CN(C)C(=O)Cn1cc(-c2nc([C@@](C)(c3ccc(-c4cnc(N)nc4)cc3)C3CC3)no2)cn1` [BI 665915], the residual activity in data set [1] was 100%; in data set [2], 87%; in data set [3], 96%; in [4], 97%; in data set [5], 95%; in data set [6], 91%. The residual activity in [7] is 100%; in data set [8], 102%; in [9], 90%; in data set [10], 89%; in data set [11], 82%; in [12], 95.5%. The residual activity is 98% in [13]; 106% in data set [14]; 99.5% in [15]; 106% in data set [16]; 100% in data set [17]; 83% in data set [18]. Further, the residual activity in data set [20] was 98%. In [19], the activity at 20 µM is 85% (not active).
